Results as given in ChEMBL document CHEMBL1201862, “PubChem BioAssay data set” (2004).
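Five compound concentrations were applied to cells in 96-well plates for 48 hours; endpoints were derived by simple linear interpolation of the resulting dose-response curve. GI50 marks 50% less growth.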 The source made the active and inactive calls. Rule as the data show it: active = GI50 up to about 1.1 µM and inactive = higher.

Experiments:
Experiment in all cases: NCI-60 cell line screen, 48 h
[1] = tested on: SK-MEL-2
[2] = tested on: U-251
[3] = tested on: SF-295
[4] = tested on: SF-268
[5] = tested on: SNB-19
[6] = tested on: T47D
[7] = tested on: RPMI-8226
[8] = tested on: COLO 205
[9] = tested on: MDA-MB-231
[10] = tested on: MDA-N
[11] = tested on: A549
[12] = tested on: NCI-H23
[13] = tested on: MCF7
[14] = tested on: 786-0
[15] = tested on: OVCAR-5
[16] = tested on: Malme-3M
[17] = tested on: SK-MEL-5
[18] = tested on: BT-549
[19] = tested on: TK-10
[20] = tested on: KM12
[21] = tested on: CAKI-1
[22] = tested on: PC-3
[23] = tested on: SW-620
[24] = tested on: EKVX
[25] = tested on: RXF 393
[26] = tested on: HOP-62
[27] = tested on: M14
[28] = tested on: MDA-MB-435
[29] = tested on: OVCAR-3
[30] = tested on: UACC-62
[31] = tested on: OVCAR-8
[32] = tested on: UACC-257
[33] = tested on: Hs-578T
[34] = tested on: SNB-75
[35] = tested on: DU-145
[36] = tested on: UO-31
[37] = tested on: SR
[38] = tested on: IGROV-1
[39] = tested on: HCT-116
[40] = tested on: K562
[41] = tested on: HCT-15
[42] = tested on: SK-OV-3
[43] = tested on: CCRF-CEM
[44] = tested on: HT-29
[45] = tested on: MOLT-4
[46] = tested on: ACHN
[47] = tested on: NCI/ADR-RES
[48] = tested on: SK-MEL-28
[49] = tested on: NCI-H522
[50] = tested on: NCI-H226
[51] = tested on: OVCAR-4
[52] = tested on: A498
[53] = tested on: SN12C
[54] = tested on: HCC 2998
[55] = tested on: LOX IMVI
[56] = tested on: NCI-H460
[57] = tested on: HL-60
[58] = tested on: SF-539
[59] = tested on: HOP-92

N#C/C(=C1/c2cc([N+](=O)[O-])ccc2-c2c1cc([N+](=O)[O-])cc2[N+](=O)[O-])N1CCCCC1
GI50 [1]: > 100 µM (inactive)
GI50 [2]: 71.8 µM (inactive)
GI50 [3]: > 100 µM (inactive)
GI50 [4]: > 100 µM (inactive)
GI50 [5]: > 100 µM (inactive)
GI50 [6]: > 100 µM (inactive)
GI50 [7]: 17 µM (inactive)
GI50 [8]: > 100 µM (inactive)
GI50 [9]: > 100 µM (inactive)
GI50 [10]: > 100 µM (inactive)
GI50 [11]: > 100 µM (inactive)
GI50 [12]: 55.7 µM (inactive)
GI50 [13]: 19 µM (inactive)
GI50 [14]: 39.2 µM (inactive)
GI50 [15]: > 100 µM (inactive)
GI50 [16]: > 100 µM (inactive)
GI50 [17]: 91.4 µM (inactive)
GI50 [18]: > 100 µM (inactive)
GI50 [19]: > 100 µM (inactive)
GI50 [20]: > 100 µM (inactive)
GI50 [21]: > 100 µM (inactive)
GI50 [22]: > 100 µM (inactive)
GI50 [23]: > 100 µM (inactive)
GI50 [24]: > 100 µM (inactive)
GI50 [25]: 34.6 µM (inactive)
GI50 [26]: 32.4 µM (inactive)
GI50 [27]: 86.9 µM (inactive)
GI50 [28]: > 100 µM (inactive)
GI50 [29]: > 100 µM (inactive)
GI50 [30]: 68.4 µM (inactive)
GI50 [31]: > 100 µM (inactive)
GI50 [32]: > 100 µM (inactive)
GI50 [33]: 43.7 µM (inactive)
GI50 [34]: 16.9 µM (inactive)
GI50 [35]: 38.5 µM (inactive)
GI50 [36]: > 100 µM (inactive)
GI50 [37]: 1.34 µM (inactive)
GI50 [38]: 49.5 µM (inactive)
GI50 [39]: 27.3 µM (inactive)
GI50 [40]: > 100 µM (inactive)
GI50 [41]: > 100 µM
GI50 [42]: 93.1 µM (inactive)
GI50 [43]: > 100 µM (inactive)
GI50 [44]: > 100 µM (inactive)
GI50 [45]: > 100 µM (inactive)
GI50 [46]: > 100 µM (inactive)
GI50 [47]: 51.3 µM (inactive)
GI50 [48]: > 100 µM (inactive)
GI50 [49]: 46.6 µM (inactive)
GI50 [50]: > 100 µM (inactive)
GI50 [51]: 23.9 µM (inactive)
GI50 [52]: > 100 µM (inactive)
GI50 [53]: > 100 µM (inactive)
GI50 [54]: > 100 µM (inactive)

C/C=C(/C)C(=O)OC1CC(C)[C@H]2CC(=O)C(C)=C2CC1C(C)(C)OC(C)=O (stereo partly specified)
GI50 [1]: 3.95 µM (inactive)
GI50 [2]: 38.1 µM (inactive)
GI50 [3]: 24.7 µM (inactive)
GI50 [4]: 58.2 µM (inactive)
GI50 [5]: 34.4 µM (inactive)
GI50 [6]: 15.4 µM (inactive)
GI50 [7]: 22.9 µM (inactive)
GI50 [8]: 17.9 µM (inactive)
GI50 [9]: 31.7 µM (inactive)
GI50 [10]: 34.2 µM (inactive)
GI50 [11]: 30.3 µM (inactive)
GI50 [12]: 74.8 µM (inactive)
GI50 [13]: 40.6 µM (inactive)
GI50 [14]: 43.8 µM (inactive)
GI50 [15]: > 100 µM (inactive)
GI50 [55]: 17.9 µM (inactive)
GI50 [16]: 19.3 µM (inactive)
GI50 [17]: 15.9 µM (inactive)
GI50 [18]: 31 µM (inactive)
GI50 [19]: 28.8 µM (inactive)
GI50 [20]: 25.9 µM (inactive)
GI50 [21]: 37.1 µM (inactive)
GI50 [22]: 31.3 µM (inactive)
GI50 [23]: 43.7 µM (inactive)
GI50 [24]: 39.1 µM (inactive)
GI50 [56]: 19.3 µM (inactive)
GI50 [25]: 22.5 µM (inactive)
GI50 [26]: 28.9 µM (inactive)
GI50 [57]: 21.4 µM (inactive)
GI50 [27]: 29.2 µM (inactive)
GI50 [28]: 28 µM (inactive)
GI50 [29]: 20.3 µM (inactive)
GI50 [30]: 21.8 µM (inactive)
GI50 [31]: 30.8 µM (inactive)
GI50 [32]: 20.9 µM (inactive)
GI50 [33]: 35.4 µM (inactive)
GI50 [34]: 44.4 µM (inactive)
GI50 [35]: 81.1 µM (inactive)
GI50 [36]: 23.5 µM (inactive)
GI50 [37]: 23 µM (inactive)
GI50 [58]: 20.7 µM (inactive)
GI50 [59]: 19.6 µM (inactive)
GI50 [38]: 53.8 µM (inactive)
GI50 [39]: 19.6 µM (inactive)
GI50 [40]: 32.6 µM (inactive)
GI50 [41]: 19.7 µM
GI50 [43]: 25.6 µM (inactive)
GI50 [44]: 35.5 µM (inactive)
GI50 [45]: 26.2 µM (inactive)
GI50 [46]: 35.6 µM (inactive)
GI50 [47]: 22.8 µM (inactive)
GI50 [48]: 31 µM (inactive)
GI50 [49]: 19.5 µM (inactive)
GI50 [50]: 37.4 µM (inactive)
GI50 [51]: 22.2 µM (inactive)
GI50 [52]: 20.2 µM (inactive)
GI50 [53]: 42 µM (inactive)
GI50 [54]: 22.6 µM (inactive)

C=C1c2nc3ccccc3n2C=C(c2ccc(OC)cc2)N1c1ccccc1
GI50 [1]: 5.28 µM (inactive)
GI50 [2]: 5.31 µM (inactive)
GI50 [3]: 3.44 µM (inactive)
GI50 [4]: 50 µM (inactive)
GI50 [5]: 11.3 µM (inactive)
GI50 [6]: 6.4 µM (inactive)
GI50 [7]: 3.65 µM (inactive)
GI50 [8]: 5.36 µM (inactive)
GI50 [9]: 11.1 µM (inactive)
GI50 [10]: 1.43 µM (inactive)
GI50 [11]: 5.37 µM (inactive)
GI50 [12]: 11.7 µM (inactive)
GI50 [13]: 4.76 µM (inactive)
GI50 [14]: 6.11 µM (inactive)
GI50 [15]: > 78.5 µM (inactive)
GI50 [55]: 7.36 µM (inactive)
GI50 [16]: 3.98 µM (inactive)
GI50 [17]: 3.99 µM (inactive)
GI50 [18]: 6.64 µM (inactive)
GI50 [19]: 32.7 µM (inactive)
GI50 [20]: 2.62 µM (inactive)
GI50 [21]: 37.8 µM (inactive)
GI50 [22]: 9.12 µM (inactive)
GI50 [23]: 3.66 µM (inactive)
GI50 [24]: 19 µM (inactive)
GI50 [56]: 3.94 µM (inactive)
GI50 [25]: 6.71 µM (inactive)
GI50 [26]: 36.8 µM (inactive)
GI50 [57]: 1.59 µM (inactive)
GI50 [27]: 4.43 µM (inactive)
GI50 [28]: 1.17 µM (inactive)
GI50 [29]: 6.62 µM (inactive)
GI50 [30]: 3.67 µM (inactive)
GI50 [31]: 8.61 µM (inactive)
GI50 [32]: 13.3 µM (inactive)
GI50 [33]: 14.4 µM (inactive)
GI50 [34]: 4.99 µM (inactive)
GI50 [35]: 28.6 µM (inactive)
GI50 [36]: 9.02 µM (inactive)
GI50 [37]: 1.96 µM (inactive)
GI50 [58]: 6.67 µM (inactive)
GI50 [59]: 30.2 µM (inactive)
GI50 [38]: 5.85 µM (inactive)
GI50 [39]: 3.95 µM (inactive)
GI50 [40]: 2.62 µM (inactive)
GI50 [41]: 3.1 µM
GI50 [42]: 47.8 µM (inactive)
GI50 [43]: 3.66 µM (inactive)
GI50 [44]: 9.68 µM (inactive)
GI50 [45]: 3.95 µM (inactive)
GI50 [46]: 39.7 µM (inactive)
GI50 [47]: 2.34 µM (inactive)
GI50 [48]: 29.6 µM (inactive)
GI50 [49]: 2.21 µM (inactive)
GI50 [50]: 4.12 µM (inactive)
GI50 [51]: 17.9 µM (inactive)
GI50 [52]: 31 µM (inactive)
GI50 [53]: 24 µM (inactive)
GI50 [54]: 3.75 µM (inactive)
